Experiment: Stability over time of foaming surfactants in formulation intermediate B with high sodium bicarbonate
Assay type: physicochemical
Conditions: incorporated in formulation intermediate B, high concentration of sodium bicarbonate
Experimental: The applicant company has known how to select a foaming surfactant which is stable over time in the presence of a high concentration of sodium bicarbonate. The following surfactants were tested in the mixture: Sodium C14-C16 Olefin Sulfonate sold by Clariant under the name Hostapur® OSB or else Hostapur® OS Liq but also Nansa® LSS 495-H sold by Huntsman, Rodacal LSS 80 RPB from Rhodia, BIO-Terge® AS-90 beads from Stepan, Sodium Cocoyl Glycinate sold by Clariant under the name Hostapon® SG, Sodium Cocoyl Isethionate sold by Clariant under the name Hostapon® SCI85 G, Sodium Lauroyl Methyl Isethionate sold by Innospec under the name Iselux® LG, Decyl Glucoside sold by Cognis under the name Plantacare® 2000 Up, Zinc Coceth Sulfate sold by Zschimmer & Schwarz under the name Zetesol® Zn, Glyceryl Monolaurate sold by Rossow under the name POEM® DL 100, and Disodium PEG-5 Laurylcitrate Sulfosuccinate sold by Evonik under the name Rewopol SB C55®.

Sodium C14-16 Olefin Sulfonate
retention of foaming and organoleptic properties (color, odor): retained its foaming properties and its organoleptic properties

Source: patent US10449175B2, “Rinse-off chemical mousse containing benzoyl peroxide” (GALDERMA RESEARCH & DEVELOPMENT, priority 2014, dated 2019)
